Reference: patent publication US20230026163A1, “ANTICANCER COMPOUND AND MEDICAL USE THEREOF” (ASCENTAWITS PHARMACEUTICALS, LTD., priority 2019, published 2023)

Assays:
NCI-H460 cells = assay: CDX model, subcutaneously transplanted human lung cancer; format: in vivo, BALB/c nude mice; conditions: for Relative tumor inhibition rate TGI (%): 31st day after inoculation
Procedure: BALB/c nude mice were subcutaneously inoculated with human lung cancer cells, NCI-H460 cells, to establish a subcutaneously transplanted tumor model of human lung cancer. The experiment was divided into a 20 mg/kg of the test drug compound 01 group, a 40 mg/kg of the test drug compound 01 group, and a vehicle control group with 10% of ethanol+10% of polyoxyethylene (35) castor oil, Cremophor EL+80% of 5% of glucose injection (pH7.4), and 6 mice in each group. […] The 40 mg/kg of the test drug compound 01 group was administered by tail vein injection, once every three weeks, for a total of 2 administrations, and observed for a week after the second administration. The 20 mg/kg of the test drug compound 01 group was administered by intraperitoneal injection once a day for 5 consecutive days and observed for 24 days. The efficacy was evaluated based on the relative tumor inhibition rate TGI (%). The safety evaluation was performed based on changes in animal body weight and mortality. The administered doses of compound 01 were determined based on the MTD experiment.
The tumor volume of each group of mice was measured on different days respectively, and the average value was obtained.

AA8 cell line = assay: Cytotoxicity on AA8 cell line (2 hours exposure, AlamarBlue); format: cell-based, Chinese hamster; conditions: Cricetulus griseus, CHO-AA8; AA8, 2 hours exposure, then 70 hours, normoxic
[1] = Hepatomicrosome stability, dog; conditions: for Remaining percentage after 30 minutes: Dog, 2 μM
Procedure: (§1) 1a) With NADPH: 10 μL of 20 mg/mL of hepatomicrosome and 40 μL of 10 mM of NADPH were added to medium. The final concentrations of hepatomicrosome and NADPH were 0.5 mg/mL and 1 mM, respectively.
(§2) 1b) Without NADPH: 10 μL of 20 mg/mL hepatomicrosome and 40 μL of ultra-pure H2O were added to medium. The final concentration of hepatomicrosome was 0.5 mg/mL.
(§3) 3) 3) Aliquots of 50 μL from the reaction solutions at 0 minute and 30 minutes were taken. The reaction solutions were stopped by adding 4 volumes of cold acetonitrile and 4 internal standards (IS internal standard, 100 nM of Alprazolam, 200 nM of caffeine, 200 nM of Labetalol, and 2 μM of Ketoprofen) to stop the reaction solution. The samples were centrifuged at 3,220 g for 40 minutes. Aliquots of 100 μL of the supernatants were mixed with 100 μL of ultra-pure H2O. Then, the mixtures were used for LC-MS/MS analysis. All experiments were performed in duplicate. The test results were as follow.

Plasma stability, human = format: in vitro ADME; conditions: 5 μM, 37° C., after 30 minutes
Procedure: Frozen plasma was melted immediately in a water bath at 37° C. […] The supernatants were collected into new tubes, respectively. pH values of the plasma were checked and recorded. Note: a, no more 2 times melted plasma was used since the sample was received; b, the plasma in pH 7 to pH 8 was used.
1 mM of working solution of the test compounds and the control compound, propantheline, were prepared in DMSO. 1 mM of working solution of the control compound in […] was prepared in acetonitrile. 4 μL of the working solutions were added to 796 μL of pre-incubated plasma respectively to achieve a final concentration of 5 μM. The final concentration of solvent was 0.5%.
Aliquots of 50 μL of labelled plasma were transferred to new tubes and incubated in a water bath at 37° C. at approximately 60 rpm for 2 hours. The test was performed in duplicate. […] 50 μL of the labeled plasma was added to new tubes containing 300 μL of the quench solution of room temperature, i.e., the sample with a preparation time of 0. The samples were vortexed to mix for 5 minutes. […] 100 μL of the supernatant was transferred to new plates.

[2] = Hepatomicrosome stability, mouse; conditions: for Remaining percentage after 30 minutes: Mouse, 2 μM
Procedure: as §1, §2, §3

H460 cell line = assay: Cytotoxicity comparison of TH-302 and compound 01 on H460 at different test times; format: cell-based, human; conditions: for IC50: Homo sapiens, NCI-H460, 2 h, H460, exposure for 2 hours, air
Source text: The cytotoxicity test results of TH-302 and compound 01 on H460 cell line under different test times in the same laboratory, the same operator, and the same experimental conditions.

UV41 cell line = assay: Cytotoxicity on UV41 cell line with DNA repair gene mutation (2 hours exposure, AlamarBlue); format: cell-based, Chinese hamster; conditions: Cricetulus griseus; UV41, 2 hours exposure, then 70 hours, normoxic
Procedure: UV41 cell line is a derivative of CHO-AA8 cell line, derived from the UV-sensitive line of AA8. The cell line is a cell line with damaged homologous recombination DNA repair enzymes and damaged nucleotide excision repair enzymes caused by mutations in ERCC4/XPF gene of DNA.
Specifically, the exponentially growing cells were seeded in 96-well plates at a density of 4×10^3 cells/well and incubated at 37° C., in 5% CO2, 95% air, and 100% relative humidity. Next, 24 hours later, the test compounds were added. The test compounds were dissolved in 100% DMSO at 200 times the desired final test concentration. Upon addition of the test compounds, the test compounds were further diluted with the complete medium to 4 times the desired final concentration. Aliquots of 50 μL of the compounds at specific concentrations were added to the microwells containing 150 μL of medium to obtain the final compound concentrations as reported. After the test compounds were added, the plates were incubated for an addition 2 hours at 37° C., in 5% CO2, 95% air, and 100% relative humidity. Then, the compounds were washed off, and fresh medium was added to the plates. The plates were incubated for an addition 70 hours at 37° C., in 5% CO2, 95% air, and 100% relative humidity. At the end of this incubation, AlamarBlue reagent was used to quantify viable cells.

## O=[N+]([O-])c1ccc(C(OP(=O)(N2CC2)N2CC2)C(F)(F)F)c2ccccc12 (centres unmarked) [Compound 01]
NCI-H460 cells; 20 mg/kg, QD×5×1 week, IP, Exp. group 8
  Relative tumor inhibition rate TGI (%): 76.22%
NCI-H460 cells; 40 mg/kg, Q3W×2, IV, Exp. group 7
  Relative tumor inhibition rate TGI (%): 66.87%
NCI-H460 cells; day 7, Exp. group 7, 40 mg/kg, Q3W×2, IV
  Tumor volume: 143.84 mm^3
NCI-H460 cells; day 7, Exp. group 8, 20 mg/kg, QD×5×1 week, IP
  Tumor volume: 144.63 mm^3
NCI-H460 cells; day 10, Exp. group 7, 40 mg/kg, Q3W×2, IV
  Tumor volume: 184.06 mm^3
NCI-H460 cells; day 10, Exp. group 8, 20 mg/kg, QD×5×1 week, IP
  Tumor volume: 173.09 mm^3
NCI-H460 cells; day 14, Exp. group 7, 40 mg/kg, Q3W×2, IV
  Tumor volume: 153.75 mm^3
NCI-H460 cells; day 14, Exp. group 8, 20 mg/kg, QD×5×1 week, IP
  Tumor volume: 152.99 mm^3
NCI-H460 cells; day 17, Exp. group 7, 40 mg/kg, Q3W×2, IV
  Tumor volume: 159.72 mm^3
NCI-H460 cells; day 17, Exp. group 8, 20 mg/kg, QD×5×1 week, IP
  Tumor volume: 130.06 mm^3
NCI-H460 cells; day 21, Exp. group 7, 40 mg/kg, Q3W×2, IV
  Tumor volume: 218.13 mm^3
NCI-H460 cells; day 21, Exp. group 8, 20 mg/kg, QD×5×1 week, IP
  Tumor volume: 129.66 mm^3
NCI-H460 cells; day 24, Exp. group 7, 40 mg/kg, Q3W×2, IV
  Tumor volume: 291.07 mm^3
NCI-H460 cells; day 24, Exp. group 8, 20 mg/kg, QD×5×1 week, IP
  Tumor volume: 164.63 mm^3
NCI-H460 cells; day 28, Exp. group 7, 40 mg/kg, Q3W×2, IV
  Tumor volume: 520.17 mm^3
NCI-H460 cells; day 28, Exp. group 8, 20 mg/kg, QD×5×1 week, IP
  Tumor volume: 272.20 mm^3
NCI-H460 cells; day 31, Exp. group 7, 40 mg/kg, Q3W×2, IV
  Tumor volume: 580.70 mm^3
NCI-H460 cells; day 31, Exp. group 8, 20 mg/kg, QD×5×1 week, IP
  Tumor volume: 447.50 mm^3
NCI-H460 cells; day 35, Exp. group 7, 40 mg/kg, Q3W×2, IV
  Tumor volume: 447.32 mm^3
NCI-H460 cells; day 35, Exp. group 8, 20 mg/kg, QD×5×1 week, IP
  Tumor volume: 651.58 mm^3
AA8 cell line
  IC50: 10800 nM
[1]; with NADPH
  Remaining percentage after 30 minutes: 31.16%
[1]; without NADPH
  Remaining percentage after 30 minutes: 101.62%
[1]; dog
  Stability in hepatomicrosomes (conclusion): unstable
Plasma stability, human
  Remaining percentage: 68.68%
[2]; with NADPH
  Remaining percentage after 30 minutes: 102.89%
[2]; without NADPH
  Remaining percentage after 30 minutes: 103.07%
[2]; mice
  Stability in hepatomicrosomes (conclusion): relatively stable
H460 cell line; Time 1
  IC50: 700 nM
  Multiple TH-302/Compound 01: 32.9
H460 cell line; Time 2
  IC50: 300 nM
  Multiple TH-302/Compound 01: 26.7
H460 cell line; Time 3
  IC50: 500 nM
  Multiple TH-302/Compound 01: 6.6
UV41 cell line
  IC50: 340 nM
